In article PMC11079024, “Identification of a family of species-selective complex I inhibitors as potential anthelmintics” (Nature Communications, 2024):
pIC50: −log10 of the molar value. Read-outs that look alike come from different tables or passages of the source.

Experiments:
[1] = target: C. elegans (N2) complex I (NADH:ubiquinone oxidoreductase) (Caenorhabditis elegans, UniProt P24887+Q93873+Q94360); assay: biochemical; type: biochemical; conditions: for pIC50: wild-type (N2) mitochondria, read-out: C. elegans Complex I IC50
Sequence of C. elegans (N2) complex I (NADH:ubiquinone oxidoreductase) (Q94360 17-199): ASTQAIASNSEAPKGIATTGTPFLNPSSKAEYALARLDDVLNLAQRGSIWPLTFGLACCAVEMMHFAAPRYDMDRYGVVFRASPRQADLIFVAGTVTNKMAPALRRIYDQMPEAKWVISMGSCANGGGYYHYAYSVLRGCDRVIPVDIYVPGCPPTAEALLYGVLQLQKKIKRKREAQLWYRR
Sequence of C. elegans (N2) complex I (NADH:ubiquinone oxidoreductase) (P24887 whole entry): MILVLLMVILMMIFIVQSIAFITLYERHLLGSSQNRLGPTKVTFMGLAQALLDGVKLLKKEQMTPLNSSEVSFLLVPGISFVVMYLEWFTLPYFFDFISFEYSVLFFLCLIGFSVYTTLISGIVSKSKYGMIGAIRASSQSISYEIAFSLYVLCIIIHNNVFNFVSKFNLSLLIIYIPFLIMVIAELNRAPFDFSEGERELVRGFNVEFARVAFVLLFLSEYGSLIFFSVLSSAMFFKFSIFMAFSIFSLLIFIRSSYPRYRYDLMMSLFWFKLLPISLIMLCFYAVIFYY
Sequence of C. elegans (N2) complex I (NADH:ubiquinone oxidoreductase) (Q93873 31-482): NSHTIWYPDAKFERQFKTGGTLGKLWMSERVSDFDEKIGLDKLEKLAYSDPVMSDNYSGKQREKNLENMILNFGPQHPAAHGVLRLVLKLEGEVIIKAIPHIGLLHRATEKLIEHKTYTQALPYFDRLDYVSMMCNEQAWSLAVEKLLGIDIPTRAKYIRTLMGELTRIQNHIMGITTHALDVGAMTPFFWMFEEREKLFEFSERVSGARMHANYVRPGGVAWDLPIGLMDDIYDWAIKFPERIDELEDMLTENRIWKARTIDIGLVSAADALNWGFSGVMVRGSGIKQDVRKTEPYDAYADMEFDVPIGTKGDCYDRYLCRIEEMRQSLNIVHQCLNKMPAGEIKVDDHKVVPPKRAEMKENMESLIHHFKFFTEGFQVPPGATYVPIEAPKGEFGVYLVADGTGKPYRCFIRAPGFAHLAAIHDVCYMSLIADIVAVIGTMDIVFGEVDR
Summary of the method: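 Mitochondria from liquid-cultured adults were freeze-thawed thrice before the 15-min DCIP-coupled NADH oxidation read.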

[2] = target: B. taurus (heart) complex I (Bos taurus, UniProt P03887+P17694+P42026); assay: biochemical; type: biochemical; conditions: for pIC50: heart mitochondria, read-out: B. taurus Complex I IC50
Sequence of B. taurus (heart) complex I (P03887 whole entry): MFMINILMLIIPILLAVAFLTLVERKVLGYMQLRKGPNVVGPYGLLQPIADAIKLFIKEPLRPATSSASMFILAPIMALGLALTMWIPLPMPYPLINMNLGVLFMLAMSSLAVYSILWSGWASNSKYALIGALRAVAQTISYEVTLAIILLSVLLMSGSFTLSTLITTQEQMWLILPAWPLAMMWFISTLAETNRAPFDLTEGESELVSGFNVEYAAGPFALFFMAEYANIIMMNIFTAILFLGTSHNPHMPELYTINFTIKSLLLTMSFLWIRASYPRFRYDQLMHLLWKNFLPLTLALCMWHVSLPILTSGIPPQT
Sequence of B. taurus (heart) complex I (P17694 34-463): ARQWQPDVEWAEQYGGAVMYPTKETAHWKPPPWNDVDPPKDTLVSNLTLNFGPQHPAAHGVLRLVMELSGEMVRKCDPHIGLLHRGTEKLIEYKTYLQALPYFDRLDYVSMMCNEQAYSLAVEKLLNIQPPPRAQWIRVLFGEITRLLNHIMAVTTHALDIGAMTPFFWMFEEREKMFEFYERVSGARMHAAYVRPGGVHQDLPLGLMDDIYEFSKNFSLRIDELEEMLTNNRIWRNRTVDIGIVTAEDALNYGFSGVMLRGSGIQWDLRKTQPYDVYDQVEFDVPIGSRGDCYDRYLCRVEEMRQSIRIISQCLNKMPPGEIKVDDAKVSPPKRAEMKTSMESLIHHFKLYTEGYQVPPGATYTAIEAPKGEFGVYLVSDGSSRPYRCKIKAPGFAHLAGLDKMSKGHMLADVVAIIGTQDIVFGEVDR
Sequence of B. taurus (heart) complex I (P42026 38-216): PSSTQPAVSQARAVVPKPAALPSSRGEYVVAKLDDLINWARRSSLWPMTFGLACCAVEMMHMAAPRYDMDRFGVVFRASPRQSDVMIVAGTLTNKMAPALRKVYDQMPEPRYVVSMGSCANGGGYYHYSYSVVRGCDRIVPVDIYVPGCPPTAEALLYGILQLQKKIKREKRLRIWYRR
Summary of the method: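 Complex I activity followed as DCIP reduction (600 nm, 30 s reads, 15 min) with 80 μM NADH and 60 μM decylubiquinone in 25 mM KPi pH 7.5 containing 2 μM antimycin A and 2 mM KCN. Freeze-thawed mouse or bovine heart mitochondria at 0.2 mg/mL; initial-rate percent of solvent control, single-point 100 μM or dose-response.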

[3] = wild-type C. elegans, mean of replicates, read-out: in vitro complex I activity relative to solvent control, Mean
[4] = wild-type C. elegans, single replicate, read-out: in vitro complex I activity relative to solvent control, individual replicate
[5] = B. taurus (heart) mitochondria, mean of replicates, read-out: percent (%) in vitro complex I activity relative to solvent control
[6] = B. taurus (heart) mitochondria, single replicate, read-out: percent (%) in vitro complex I activity relative to solvent control

CC(C)(C)c1ccc(CCOc2ncnc3ccccc23)cc1 [Fenazaquin, reference compound]
remaining activity at 0.0001 µM ([1]; dose 0.0001 µM, wild-type C. elegans, mean of replicates, read-out: in vitro complex I activity relative to solvent control, Mean): 94.3%
remaining activity at 0.0005 µM ([1]; dose 0.0005 µM, wild-type C. elegans, mean of replicates, read-out: in vitro complex I activity relative to solvent control, Mean): 89.7%
remaining activity at 0.001 µM [1, 3]: 82.5%
remaining activity at 0.001 µM [1, 4]: 80.4%
remaining activity at 0.0025 µM [1, 3]: 63.3%
remaining activity at 0.0025 µM [1, 4]: 63.7%
remaining activity at 0.005 µM [1, 3]: 42.1%
remaining activity at 0.005 µM [1, 4]: 42.3%
remaining activity at 0.013 µM [1, 3]: 24%
remaining activity at 0.013 µM [1, 4]: 25.6%
remaining activity at 0.025 µM ([1]; dose 0.025 µM, wild-type C. elegans, mean of replicates, read-out: in vitro complex I activity relative to solvent control, Mean): 12.5%
remaining activity at 0.063 µM ([1]; dose 0.063 µM, wild-type C. elegans, mean of replicates, read-out: in vitro complex I activity relative to solvent control, Mean): 5.41%
remaining activity at 0.125 µM ([1]; dose 0.125 µM, wild-type C. elegans, mean of replicates, read-out: in vitro complex I activity relative to solvent control, Mean): 2.53%
remaining activity at 0.313 µM ([1]; dose 0.313 µM, wild-type C. elegans, mean of replicates, read-out: in vitro complex I activity relative to solvent control, Mean): 1.71%
remaining activity at 0.625 µM ([1]; dose 0.625 µM, wild-type C. elegans, mean of replicates, read-out: in vitro complex I activity relative to solvent control, Mean): 2.18%
remaining activity at 1.5 µM ([1]; dose 1.5 µM, wild-type C. elegans, mean of replicates, read-out: in vitro complex I activity relative to solvent control, Mean): 1.91%
remaining activity at 3 µM ([1]; dose 3 µM, wild-type C. elegans, mean of replicates, read-out: in vitro complex I activity relative to solvent control, Mean): 1.48%
remaining activity at 15 µM ([1]; dose 15 µM, wild-type C. elegans, mean of replicates, read-out: in vitro complex I activity relative to solvent control, Mean): 1.53%
remaining activity at 37.5 µM ([1]; dose 37.5 µM, wild-type C. elegans, mean of replicates, read-out: in vitro complex I activity relative to solvent control, Mean): 1.86%
remaining activity at 75 µM ([1]; dose 75 µM, wild-type C. elegans, mean of replicates, read-out: in vitro complex I activity relative to solvent control, Mean): 3.14%
pIC50 [1]: 8.38
pIC50 [2]: 7.62

COc1ccc(Cc2nccc3cc(OC)c(OC)cc23)cc1OC [Papaverine, reference compound]
remaining activity at 0.125 µM ([1]; 0.125 µM, wild-type C. elegans mitochondria, mean of replicates, read-out: percent (%) in vitro complex I activity relative to solvent control): 95.7%
remaining activity at 0.313 µM ([1]; 0.313 µM, wild-type C. elegans mitochondria, mean of replicates, read-out: percent (%) in vitro complex I activity relative to solvent control): 87.5%
remaining activity at 0.313 µM ([1]; 0.313 µM, wild-type C. elegans mitochondria, single replicate, read-out: percent (%) in vitro complex I activity relative to solvent control): 85.7%
remaining activity at 0.625 µM ([1]; 0.625 µM, wild-type C. elegans mitochondria, mean of replicates, read-out: percent (%) in vitro complex I activity relative to solvent control): 100%
remaining activity at 0.625 µM ([1]; 0.625 µM, wild-type C. elegans mitochondria, single replicate, read-out: percent (%) in vitro complex I activity relative to solvent control): 100%
remaining activity at 1.5 µM ([1]; 1.5 µM, wild-type C. elegans mitochondria, mean of replicates, read-out: percent (%) in vitro complex I activity relative to solvent control): 81.8%
remaining activity at 1.5 µM ([1]; 1.5 µM, wild-type C. elegans mitochondria, single replicate, read-out: percent (%) in vitro complex I activity relative to solvent control): 81.5%
remaining activity at 3 µM ([1]; 3 µM, wild-type C. elegans mitochondria, mean of replicates, read-out: percent (%) in vitro complex I activity relative to solvent control): 63.8%
remaining activity at 3 µM ([1]; 3 µM, wild-type C. elegans mitochondria, single replicate, read-out: percent (%) in vitro complex I activity relative to solvent control): 67.5%
remaining activity at 15 µM ([1]; 15 µM, wild-type C. elegans mitochondria, mean of replicates, read-out: percent (%) in vitro complex I activity relative to solvent control): 22.1%
remaining activity at 37.5 µM ([1]; 37.5 µM, wild-type C. elegans mitochondria, mean of replicates, read-out: percent (%) in vitro complex I activity relative to solvent control): 6.94%
remaining activity at 75 µM ([1]; 75 µM, wild-type C. elegans mitochondria, mean of replicates, read-out: percent (%) in vitro complex I activity relative to solvent control): 7.49%
pIC50 [1]: 5.36
remaining activity at 0.125 µM [2, 5]: 93.4%
remaining activity at 0.125 µM [2, 6]: 87.6%
remaining activity at 0.313 µM [2, 5]: 93.3%
remaining activity at 0.313 µM [2, 6]: 92.3%
remaining activity at 0.625 µM [2, 5]: 91.6%
remaining activity at 0.625 µM [2, 6]: 89.2%
remaining activity at 1.5 µM [2, 5]: 83.3%
remaining activity at 1.5 µM [2, 6]: 88.4%
remaining activity at 3 µM ([2]; 3 µM, B. taurus (heart) mitochondria, mean of replicates, read-out: percent (%) in vitro complex I activity relative to solvent control): 76.1%
remaining activity at 15 µM ([2]; 15 µM, B. taurus (heart) mitochondria, mean of replicates, read-out: percent (%) in vitro complex I activity relative to solvent control): 30.1%
remaining activity at 37.5 µM ([2]; 37.5 µM, B. taurus (heart) mitochondria, mean of replicates, read-out: percent (%) in vitro complex I activity relative to solvent control): 12.9%
remaining activity at 75 µM [2, 5]: 6.58%
remaining activity at 75 µM [2, 6]: 9.15%
pIC50 [2]: 5.07
